Test results as given in patent US20060258598A1, “Alpha-keto carbonyl calpain inhibitors” (priority 2003, published 2006).

Assays:
human μ-calpain = target: T1, human μ-calpain (Homo sapiens, UniProt P07384); experiment: Enzymatic calpain inhibition assay; format: biochemical; settings: substrate Suc-Leu-Tyr-AMC, read-out: Calp I IC50
T1 construct: purchased Calbiochem
T1 sequence (P07384 1-714): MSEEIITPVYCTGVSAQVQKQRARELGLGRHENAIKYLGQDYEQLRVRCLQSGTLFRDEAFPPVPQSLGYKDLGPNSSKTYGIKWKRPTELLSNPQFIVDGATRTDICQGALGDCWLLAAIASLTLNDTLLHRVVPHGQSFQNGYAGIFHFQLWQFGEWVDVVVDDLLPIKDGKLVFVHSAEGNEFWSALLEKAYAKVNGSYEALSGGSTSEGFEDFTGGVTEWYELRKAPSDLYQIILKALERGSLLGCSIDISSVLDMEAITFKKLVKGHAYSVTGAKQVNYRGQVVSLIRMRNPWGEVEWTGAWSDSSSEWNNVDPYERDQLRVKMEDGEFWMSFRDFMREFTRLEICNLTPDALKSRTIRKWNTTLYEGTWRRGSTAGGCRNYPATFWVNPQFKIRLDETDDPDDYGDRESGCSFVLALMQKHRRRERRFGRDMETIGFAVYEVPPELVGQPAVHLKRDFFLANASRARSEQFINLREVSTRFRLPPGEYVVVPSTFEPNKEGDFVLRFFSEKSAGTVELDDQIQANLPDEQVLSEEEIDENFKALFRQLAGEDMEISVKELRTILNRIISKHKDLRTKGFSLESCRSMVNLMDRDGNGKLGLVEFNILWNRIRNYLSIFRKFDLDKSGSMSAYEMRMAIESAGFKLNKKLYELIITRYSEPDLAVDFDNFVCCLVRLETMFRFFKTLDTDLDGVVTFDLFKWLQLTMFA
T1 sequence (P04632 1-268 partner): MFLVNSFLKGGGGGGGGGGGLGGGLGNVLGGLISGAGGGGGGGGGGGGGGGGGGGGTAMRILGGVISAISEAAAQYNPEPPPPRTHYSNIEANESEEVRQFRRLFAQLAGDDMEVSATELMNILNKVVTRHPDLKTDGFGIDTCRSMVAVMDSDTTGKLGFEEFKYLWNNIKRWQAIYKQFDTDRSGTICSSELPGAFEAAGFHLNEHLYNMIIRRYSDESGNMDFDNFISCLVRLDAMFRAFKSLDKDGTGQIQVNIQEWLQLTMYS
Procedure: The Ki value was also determined in some cases. These criteria were used to measure the inhibitory effect of the compounds (I) on calpain I, calpain II and cathepsin B.
Enzymatic Calpain Inhibition Assay
The inhibitory properties of calpain inhibitors are tested in 100 μl of a buffer containing 100 mM imidazole pH 7.5, 5 mM L-Cystein-HCl, 5 mM CaCl2, 250 μM of the calpain fluorogenic substrate Suc-Leu-Tyr-AMC (Sigma) (Sasaki et al., J. Biol. Chem., 1984, 259, 12489-12949) dissolved in 2.5 μl DMSO and 0.5 μg of human μ-calpain (Calbiochem). The inhibitors dissolved in 1 μl DMSO are added to the reaction buffer. The fluorescence of the cleavage product 7-amino-4-methylcoumarin (AMC) is followed in a SPECTRAmax GEMINI XS (Molecular Device) fluorimeter at λex=360 nm and λem=440 nm at 30° C. during 30 min at intervals of 30 sec in 96-well plates (Greiner). The initial reaction velocity at different inhibitor concentrations is plotted against the inhibitor concentration and the IC50 values determined graphically.

[1] = tested on: cellular calpains in C2C12 myoblasts; experiment: Calpain inhibition assay in C2C12 myoblasts; format: cell-based; settings: 2 h incubation, calcium ionophore Br-A-23187, read-out: Calp I IC50 Myoblast
Procedure: Calpain Inhibition Assay in C2C12 Myoblasts
This assay is aimed at monitoring the ability of the substance to inhibit cellular calpains. C2C12 myoblasts are grown in 96-well plates in growth medium (DMEM, 20% foetal calf serum) until they reach confluency. The growth medium is then replaced by fusion medium (DMEM, 5% horse serum). 24 hours later the fusion medium is replaced by fusion medium containing the test substances dissolved in 1 μl DMSO. After 2 hours of incubation at 37° C. the cells are loaded with the calpain fluorogenic substrate Suc-Leu-Tyr-AMC at 400 μM in 50 μl of a reaction buffer containing 135 mM NaCl; 5 mM KCl; 4 mM CaCl2; 1 mM MgCl2; 10 mM Glucose; 10 mM HEPES pH 7.25 for 20 min at room temperature. The calcium influx, necessary to activate the cellular calpains, is evoked by the addition of 50 μl reaction buffer containing 20 μM of the calcium ionophore Br-A-23187 (Molecular Probes). The fluorescence of the cleavage product AMC is measured as described above during 60 min at 37° C. at intervals of 1 min. The IC50 values are determined as described above. Comparison of the IC50 determined in the enzymatic calpain inhibition assay to the IC50 determined in the C2C12 myoblasts calpain inhibiton assay, allows to evaluate the cellular uptake or the membrane permeability of the substance.

[2] = tested on: Primary fibroblasts from donors with Friedreich Ataxia (FRDA); experiment: BSO assay (cell viability under BSO-induced oxidative stress); format: cell-based, human; settings: 24 h preincubation, 1 mM BSO; for EC50: Homo sapiens, Fibroblast
Procedure: Primary fibroblasts were derived from donors with molecular diagnosis for Friedreich Ataxia (FRDA) and control donors with no mitochondrial disease. Cell lines were obtained from Coriell Cell Repositories (Camden, N.J.; catalog numbers GM04078, GM08402 and GM08399 respectively). All cell types were diagnosed on the molecular level for intronic […] triplet repeat length of at least 400-450 repeats using a PCR-based method. Experiments were carried out as described in the literature (M. L. Jauslin et al., Human Mol. Genet., 2002, 11, 3055-3063): Cells were seeded in microtiter plates at a density of 4'000 cells per 100 μl in growth medium consisting of 25% (v/v) M199 EBS and 64% (v/v) MEM EBS without phenol red (Bioconcept, Allschwil, Switzerland) supplemented with 10% (v/v) fetal calf serum (PAA Laboratories, Linz, Austria), 100 U/ml penicillin, 100 μg/ml streptomycin (PAA Laboratories, Linz, Austria), 10 μg/ml insulin (Sigma, Buchs, Switzerland), 10 ng/ml EGF (Sigma, Buchs, Switzerland), 10 ng/ml bFGF (PreproTech, Rocky Hill, N.J.) and 2 mM glutamine (Sigma, Buchs, Switzerland). The cells were incubated in the presence of various test compounds for 24 h before addition of L-buthionine-(S,R)-sulfoximine (BSO) to a final concentration of 1 mM. Cell viability was measured after the first signs of toxicity appeared in the BSO-treated controls (typically after 16 to 48 h). The cells were stained for 60 min at room temperature in PBS with 1.2 μM calcein AM and 4 μM ethidium homodimer (Live/Dead assay, Molecular Probes, Eugene, Oreg.). Fluorescence intensity was measured with a Gemini Spectramax XS spectrofluorimeter (Molecular Devices, Sunnyvale, Calif.) using excitation and emission wavelengths of 485 nm and 525 nm respectively.

Row | SMILES | IC50 (human μ-calpain) [nM] | IC50 [1] [nM] | EC50 [2] [nM] | BSO EC50 [2]
1 | Cc1ccc(S(=O)(=O)CNC(=O)C(=O)[C@H](Cc2ccc(Cl)cc2)NC(=O)[C@H](CC(C)C)NC(=O)CCCCC2CCSS2)cc1 (stereo partly drawn) [Example 25] | 120 | 1500 | 2000 | 
2 | CCNC(=O)C(=O)[C@H](Cc1ccc(Br)cc1)NC(=O)[C@@H](NC(=O)CCCCC1CCSS1)C(C)CC (stereo partly drawn) [Example 74] | 180 | 9000 | 3000 | 
3 | CCNC(=O)C(=O)[C@H](Cc1ccc(C)cc1)NC(=O)[C@@H](NC(=O)CCCCC1CCSS1)C(C)CC (stereo partly drawn) [Example 116] | 300 | 1000 | 2000 | 
4 | CCNC(=O)C(=O)[C@H](Cc1ccc(OC)cc1)NC(=O)[C@@H](NC(=O)CCCCC1CCSS1)C(C)C (stereo partly drawn) [Example 84] | 400 | 4000 | 2000 | 
5 | CCNC(=O)C(=O)[C@H](Cc1ccc(C#N)cc1)NC(=O)[C@@H](NC(=O)CCCCC1CCSS1)C(C)C (stereo partly drawn) [Example 130] | 120 | 5000 | 20000 | 
6 | CCNC(=O)C(=O)[C@H](Cc1ccc(C#N)cc1)NC(=O)[C@@H](NC(=O)CCCCC1CCS[S+]1[O-])C(C)C (stereo partly drawn) [Example 131] | 180 | 7500 | 30000 | 
7 | CCNC(=O)C(=O)[C@H](Cc1ccc(OC)cc1)NC(=O)[C@@H](NC(=O)C1(NC(=O)CCCCC2CCSS2)CC1)C(C)C (stereo partly drawn) [Example 192] | 370 | 3200 | 1500 | 
8 | CCNC(=O)C(=O)[C@H](Cc1ccc(C(F)(F)F)cc1)NC(=O)[C@@H](NC(=O)CCCCC1CCSS1)C(C)C (stereo partly drawn) [Example 122] | 200 | 1100 | 5000 | 
9 | CCNC(=O)C(=O)[C@H](Cc1ccc(Cl)cc1)NC(=O)[C@@H](NC(=O)CCCCC1SC[C@@H]2NC(=O)N[C@H]12)C(C)C (stereo partly drawn) [Example 159] | 100 | 5000 |  | inactive

Further lines, with some results ahead:

Row | IC50 (human μ-calpain) [nM] | IC50 [1] [nM] | SMILES | EC50 [2] [nM] | BSO EC50 [2]
10 | 40 | 2500 | CCNC(=O)C(=O)[C@H](Cc1cccs1)NC(=O)[C@H](CC(C)C)NC(=O)CCCCC1CCSS1 (stereo partly drawn) [Example 147] | 1500 | 
11 | 50 | 3000 | CCNC(=O)C(=O)[C@H](Cc1ccc(Cl)cc1Cl)NC(=O)[C@H](CC(C)C)NC(=O)CCCCC1CCSS1 (stereo partly drawn) [Example 35] |  | inactive
12 | 100 | 6000 | CCNC(=O)C(=O)[C@H](Cc1cccs1)NC(=O)[C@@H](NC(=O)CCCCC1CCSS1)C(C)C (stereo partly drawn) [Example 145] | 1500 | 
13 | 26 | 1200 | CCNC(=O)C(=O)[C@H](Cc1ccc(OC)cc1)NC(=O)[C@@H](NC(=O)c1ccccc1NC(=O)CCCCC1CCS[S+]1[O-])C(C)C (stereo partly drawn) [Example 199] | 4000 | 
14 | 9 | 2500 | CCNC(=O)C(=O)[C@H](Cc1ccc(Cl)cc1)NC(=O)[C@H](CC(C)C)NC(=O)CNC(=O)CCCCC1CCS[S+]1[O-] (stereo partly drawn) [Example 177] | 6000 | 
15 | 35 | 2500 | CCNC(=O)C(=O)[C@H](Cc1ccc(OC)cc1)NC(=O)[C@H](CC(C)C)NC(=O)CCCCC1CCS[S+]1[O-] (stereo partly drawn) [Example 95] | 10000 | 
16 | 20 | 2500 | CCNC(=O)C(=O)[C@H](Cc1ccc(Cl)cc1)NC(=O)[C@@H](NC(=O)CCCNC(=O)CCCCC1CCSS1)C(C)C (stereo partly drawn) [Example 174] | 6000 | 
17 | 25 | 15000 | CCNC(=O)C(=O)[C@H](Cc1ccccc1)NC(=O)[C@H](CC(C)C)NC(=O)CNC(=O)CCCCC1CCS[S+]1[O-] (stereo partly drawn) [Example 211] | 4000 | 
18 | 100 | 20000 | CCNC(=O)C(=O)[C@H](Cc1ccccc1)NC(=O)[C@H](CC(C)C)NC(=O)CCCCC1CCS[S+]1[O-] (stereo partly drawn) [Example 142] | 3000 | 
19 | 30 | 1700 | CCNC(=O)C(=O)[C@H](Cc1ccc(C#N)cc1)NC(=O)[C@H](CC(C)C)NC(=O)CCCCC1CCSS1 (stereo partly drawn) [Example 132] | 5000 | 
20 | 50 | 4000 | CCNC(=O)C(=O)[C@H](Cc1cccc(C(F)(F)F)c1)NC(=O)[C@H](CC(C)C)NC(=O)CCCCC1CCS[S+]1[O-] (stereo partly drawn) [Example 129] | 2000 | 
21 | 22 | 2500 | CCNC(=O)C(=O)[C@H](Cc1ccc(Cl)cc1)NC(=O)[C@H](CC(C)C)NC(=O)CCCCC1CCSS1 (stereo partly drawn) [Example 15] | 4000 | 
22 | 40 | 2500 | CCNC(=O)C(=O)[C@H](Cc1ccc(Cl)cc1)NC(=O)[C@H](CC(C)C)NC(=O)CNC(=O)CCCCC1CCSS1 (stereo partly drawn) [Example 176] | 20000 | 
